Results taken from patent US10195196B2, “1,4-disubstituted pyridazine analogs there of and methods for treating SMN-deficiency-related conditions” (NOVARTIS AG, priority 2012, dated 2019).

System: SMN protein
Experiment: cellular SMN ELISA (SMN protein elevation)
Format: cell-based
Settings: myoblast cell line from SMNdelta7 mouse model, 24 hours treatment; for SMN activity Fold: fold activation over DMSO control
Method: A cellular SMN ELISA was used to measure the effects of low molecular weight compounds on SMN protein elevation. Cells from a myoblast cell line derived from the SMNdelta7 mouse model (kind gift from Steve Burden, NYU) were seeded into a 384-well plate at a density of 3000 cells/well and treated with compounds for 24 hours. ELISA capture plates were prepared by coating 384-well plates (Immulon 4HBX) with 0.5 ug/mL of anti-SMN mAb (BD Science, Catalog number 610647) at 4° C. overnight. The plates were washed 5 times with 110 uL of PBS-Tween (0.05% Tween-20, PBST), blocked with 100 uL of 1% BSA in PBST for 2 hours and washed (5 times) with 100 uL of PBST. After 24 hours of compound treatment cells were lysed in a modified RIPA-buffer, on ice for 1 hour. 20 uL of lysate and 20 uL of 1% BSA were then added to the ELISA capture plates and incubated at 4° C. overnight. Plates were washed (5 times) with PBST and then incubated with 1:100 dilution of primary rabbit anti-SMN polyclonal antibody (Santa cruz, Catalog number SC-15320) at room temperature for 1 hour and subsequently washed (5 times) with 110 uL of PBST. This was followed by addition of 1:100 Goat anti-Rabbit IgG-HRP linked (Cell Signaling, Catalog number 7074) secondary antibody for 1 hour. Plates were then washed with PBST and incubated with 40 uL TMB substrate (Cell Signaling, Catalog number 7004L) at room temperature for 1-10 minutes with shaking. The reaction was stopped by addition of 40 uL of stop solution (Cell signaling, Catalog number 7002L) and absorption was measured at 450 nm. Data was reported as fold activation over DMSO control, and EC50.
ELISA assay condition 1: compound concentration range 20 nM-10 uM; ELISA assay condition 2: compound concentration 100 pM-10 uM.

[1] = ELISA condition 2: compound concentration 100 pM-10 uM
[2] = ELISA condition 1: compound concentration range 20 nM-10 uM

EC50 [1]	SMILES	SMN activity Fold [1]	EC50 [2]	SMN activity Fold [2]
183 nM	CC1CC(Oc2ccc(-c3ccc(-n4cccn4)cc3O)nn2)CC(C)N1 (single isomer, unassigned) [Example 17-3, 2-(6-((2,6-Dimethylpiperidin-4-yl)oxy)pyridazin-3-yl)-5-(1H-pyrazol-1-yl)phenol]	2.75 Fold		
92 nM	CC1CC(Oc2ccc(-c3ccc(-n4cccn4)cc3O)nn2)CC(C)N1 (single isomer, unassigned) [Example 17-4, 2-(6-((2,6-Dimethylpiperidin-4-yl)oxy)pyridazin-3-yl)-5-(1H-pyrazol-1-yl)phenol]	3.25 Fold		
443 nM	CC1CC(Oc2ccc(-c3ccc(-n4cccn4)cc3O)nn2)CCN1 (single isomer, unassigned) [Example 17-6]	2.58 Fold		
617 nM	CC1CC(Oc2ccc(-c3ccc(-n4cccn4)cc3O)nn2)CCN1 (single isomer, unassigned) [Example 17-7]	2.50 Fold		
3150 nM	Oc1cc(-n2cccn2)ccc1-c1ccc(OCC2CCNC2)nn1 (single isomer, unassigned) [Example 17-8, 5-(1H-pyrazol-1-yl)-2-(6-(pyrrolidin-3-ylmethoxy)pyridazin-3-yl)phenol]	2.18 Fold		
1670 nM	Oc1cc(-n2cccn2)ccc1-c1ccc(OCC2CCNC2)nn1 (single isomer, unassigned) [Example 17-9, 5-(1H-pyrazol-1-yl)-2-(6-(pyrrolidin-3-ylmethoxy)pyridazin-3-yl)phenol]	2.63 Fold		
726 nM	CC1(C)CC(Nc2ccc(-c3ccccc3O)nn2)CC(C)(C)N1 [Example 1-3, 2-(6-(2,2,6,6-tetramethylpiperidin-4-ylamino)-pyridazin-3-yl)phenol]	2.45 Fold		
	CN(c1ccc(-c2cc3cc(C#N)ccc3s2)nn1)C1CC(C)(C)NC(C)(C)C1 [Example 1-4, 2-(6-(methyl-(2,2,6,6-tetra-methylpiperidin-4-yl)amino)pyridazin-3-yl)benzo[b]-thio-phene-5-carbonitrile]		90 nM	2.05 Fold
	CC1(C)CC(Nc2ccc(-c3cnc4ccccc4c3)nn2)CC(C)(C)N1 [Example 1-5, 6-(quinolin-3-yl)-N-(2,2,6,6-tetramethyl-piperidin-4-yl)pyridazin-3-amine]		650 nM	2.50 Fold
	CC1(C)CC(Oc2ccc(-c3cc4ccccc4s3)nn2)CC(C)(C)N1 [Example 1-6, 3-(benzo[b]-thiophen-2-yl)-6-(2,2,6,6-tetra-methylpiperidin-4-yloxy)pyridazine]		2440 nM	2.00 Fold
	CN(c1ccc(-c2ccccc2O)nn1)C1CC(C)(C)NC(C)(C)C1 [Example 1-7, 2-(6-(methyl-(2,2,6,6-tetra-methylpiperidin-4-yl)amino)-pyridazin-3-yl)phenol]		1550 nM	2.07 Fold
	CN(c1ccc(-c2ccc3cc(O)ccc3c2)nn1)C1CC(C)(C)NC(C)(C)C1 [Example 1-8, 6-(6-(methyl-(2,2,6,6-tetra-methylpiperidin-4-yl)amino)-pyridazin-3-yl)naphthalen-2-ol]		320 nM	2.18 Fold
1100 nM	CC1(C)CC(Oc2ccc(-c3ccc4ccncc4c3)nn2)CC(C)(C)N1 [Example 1-10, 7-(6-((2,2,6,6-tetramethylpiperidin-4-yl)oxy)pyridazin-3-yl)isoquinoline]	2.75 Fold		
3900 nM	CC1(C)CC(Oc2ccc(-c3ccc4cnccc4c3)nn2)CC(C)(C)N1 [Example 1-11, 6-(6-((2,2,6,6-tetramethylpiperidin-4-yl)oxy)pyridazin-3-yl)isoquinoline]	2.67 Fold		
	CN(c1ccc(-c2ccc(-n3cccc3)nc2)nn1)C1CC(C)(C)NC(C)(C)C1 [Example 1-18, methyl-[6-(6-pyrrol-1-yl-pyridin-3-yl)-pyridazin-3-yl]-(2,2,6,6-tetramethyl-piperidin-4-yl)-amine]		1130 nM	2.69 Fold
	CN(c1ccc(-c2ccc(-n3cccn3)nc2)nn1)C1CC(C)(C)NC(C)(C)C1 [Example 1-19, methyl-[6-(6-pyrazol-1-yl-pyridin-3-yl)-pyridazin-3-yl]-(2,2,6,6-tetramethyl-piperidin-4-yl)-amine]		740 nM	3.10 Fold
	CN(c1ccc(-c2cnc3ccccc3n2)nn1)C1CC(C)(C)NC(C)(C)C1 [Example 1-20, methyl-(6-quinoxalin-2-yl-pyridazin-3-yl)-(2,2,6,6-tetramethyl-piperidin-4-yl)-amine]		470 nM	3.04 Fold
	CN(c1ccc(-c2cnc3ccccc3c2)nn1)C1CC(C)(C)NC(C)(C)C1 [Example 1-21, methyl-(6-quinolin-3-yl-pyridazin-3-yl)-(2,2,6,6-tetramethyl-piperidin-4-yl)-amine]		630 nM	2.49 Fold
	CC1(C)CC(Nc2ccc(-c3ccc4nonc4c3)nn2)CC(C)(C)N1 [Example 2-1, 6-(benzo[c][1,2,5]oxa-diazol-5-yl)-N-(2,2,6,6-tetramethyl-piperidin-4-yl)pyridazin-3-amine]		1370 nM	2.68 Fold

SMILES	EC50 [1]	SMN activity Fold [1]	EC50 [2]	SMN activity Fold [2]
CN(c1ccc(-c2ccc3cccnc3c2)nn1)C1CC(C)(C)NC(C)(C)C1 [Example 1-12, N-methyl-6-(quinolin-7-yl)-N-(2,2,6,6-tetramethyl-piperidin-4-yl)pyridazin-3-amine]	367 nM	2.54 Fold		
CN(c1ccc(-c2ccc3ncccc3c2)nn1)C1CC(C)(C)NC(C)(C)C1 [Example 1-13, N-methyl-6-(quinolin-6-yl)-N-(2,2,6,6-tetramethylpiperidin-4-yl)pyridazin-3-amine]	661 nM	2.22 Fold		
CN(c1ccc(-c2ccc3ccncc3c2)nn1)C1CC(C)(C)NC(C)(C)C1 [Example 1-14, 6-(isoquinolin-7-yl)-N-methyl-N-(2,2,6,6-tetramethylpiperidin-4-yl)pyridazin-3-amine]	252 nM	3.13 Fold		
CN(c1ccc(-c2ccc3cnccc3c2)nn1)C1CC(C)(C)NC(C)(C)C1 [Example 1-15, 6-(isoquinolin-6-yl)-N-methyl-N-(2,2,6,6-tetramethylpiperidin-4-yl)pyridazin-3-amine]	197 nM	2.93 Fold		
CN(c1ccc(-c2ccc3nccn3c2)nn1)C1CC(C)(C)NC(C)(C)C1 [Example 1-16, 6-(imidazo[1,2-a]pyridin-6-yl-pyridazin-3-yl)-methyl-(2,2,6,6-tetramethyl-piperidin-4-yl)-amine]	2980 nM	2.28 Fold		
CN(c1ccc(-c2ccc(-c3ccccc3)nc2)nn1)C1CC(C)(C)NC(C)(C)C1 [Example 1-17, methyl-[6-(6-phenyl-pyridin-3-yl)-pyridazin-3-yl]-(2,2,6,6-tetramethyl-piperidin-4-yl)-amine]	926 nM	2.37 Fold		
CN(c1ccc(-c2ccc3cnncc3c2)nn1)C1CC(C)(C)NC(C)(C)C1 [Example 1-22, N-methyl-6-(phthalazin-6-yl)-N-(2,2,6,6-tetramethylpiperidin-4-yl)pyridazin-3-amine]	867 nM	2.71 Fold		
